Reference: patent US20230183176A1, “PROCESS OF MAKING N,N'-DIACETYL-L-CYSTINE” (Conopco, Inc., d/b/a UNILEVER, priority 2020, published 2023)

What was measured:
skin cells = test: potentiating glutathione synthesis within skin cells; assay type: cell-based; conditions: compared with cystine
[1] = solubility of NDAC compared with cystine; assay type: physicochemical
[2] = organic solvents such as alcohols, ethers, esters, ketones; cited from earlier work

| solubility relative to cystine [1] | SMILES | performance for potentiating glutathione synthesis within skin cells (skin cells) | solubility in organic solvents [2] |
| --- | --- | --- | --- |
| more soluble | CC(=O)N[C@@H](CSSC[C@H](NC(C)=O)C(=O)O)C(=O)O [NDAC, N,N′-diacetyl-L-Cystine] | comparable to that of cystine | – |
| – | N[C@@H](CSSC[C@H](N)C(=O)O)C(=O)O [cystine, L-Cystine] | – | practically insoluble |
